Results taken from patent US20060229433A1, “Modified antiviral peptides with increased activity and cell membrane affinity” (priority 2003, published 2006).
“And” between values parts separate entries of the source, which are not always exact repeats. Identical values can stand only once. Square brackets hold non-standard residues; d marks the D form. Peptide text beside a SMILES is read from it. Ava = NCCCCC(=O)O

Columns and labels:
Format in all cases: cell-based
HIV-1 NDK = assay: HIV-1 infection of C8166 cells (syncytia formation, p24 ELISA) with HIV-1 NDK; design: key to syncitia formed, Day 4 / syncitia formed, Day 5 / syncitia formed, Day 6 / syncitia formed, Day 7: ++, +, (+), (+)− and − represent decreasing numbers of syncitia formed; ++, +, (+), (+)− and − represent decreasing numbers of syncitia formed; ++, +, (+), (+)− and − represent decreasing numbers of syncitia formed; ++, +, (+), (+)− and − represent decreasing numbers of syncitia formed; ++, +, (+), (+)− and − represent decreasing numbers of syncitia formed; settings: for P 24: P 24 after Day 7
Protocol: HIV-1 NL 4-3 isolate (Adachi et al., 1986; Barré-Sinoussi et al., 1983) and highly cytopathic Zairian HIV-1 NDK isolate (Ellrodt et al., 1984) was propagated in permissive CEM cells (Nara et al., 1987). Uninfected CEM and C8166 (Salahuddin et al., 1983) were maintained in RPMI 1640 (R10) with ultraglutamine (cambrex, Vervier, Belgium), penicillin (100 U/ml), streptomycin (100 μg/ml), and 10% heat-inactivated fetal calf serum (Cambrex).
Samples of 3×10^5/100 μL C8166 cells were preincubated in 96-well microtiter plates in culture medium containing various concentrations of peptide. After a 1 h treatment at 37° C., 100 μl of diluted viral solution of HIV-1 was added. The cells were exposed to the virus for 1 h at 37° C. at a multiplicity of infection of 1000 TCID50 per ml. The cells were washed three times and cultured at 3×10^5/ml of R10 with the treatment in 24-well plates incubated at 37° C. C8166 culture medium was replaced at Day-4 post-infection. The treatment was permanent before virus adsorption, during virus adsorption and after infection. Assays on C8166 cells have been performed at least twice and in duplicate. Toxicity was evaluated by daily cell count and trypan-blue exclusion assay. Infection of C8166 T-cells with HIV-1 was assessed by virus-induced cytopathic effects (syncytia formation) and by quantification of cell free p24 viral protein in the culture supernatants. Measurements of HIV-1 p24^gag concentration in the culture supernatants were achieved by ELISA (ALLIANCE® HIV-1 p24 kit, Perkin Elmer, life sciences, USA).

HIV-1 NL 4-3 [1] = assay: HIV-1 infection of C8166 cells (syncytia formation, p24 ELISA) with HIV-1 NL 4-3; design: key to syncitia formed, Day 4 / syncitia formed, Day 5 / syncitia formed, Day 6 / syncitia formed, Day 7: ++, +, (+), (+)− and − represent decreasing numbers of syncitia formed; ++, +, (+), (+)− and − represent decreasing numbers of syncitia formed; ++, +, (+), (+)− and − represent decreasing numbers of syncitia formed; ++, +, (+), (+)− and − represent decreasing numbers of syncitia formed; ++, +, (+), (+)− and − represent decreasing numbers of syncitia formed
Method in brief: (§1)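 Infection was read out as syncytia and as cell-free p24 in supernatants (ELISA) from C8166 cells that received HIV-1 (1000 TCID50/ml, 1 h, 37 °C) after a 1 h peptide pretreatment. Peptide stayed on before, during and after adsorption. Toxicity was checked by daily trypan-blue counts.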

HIV-1 NL 4-3 [2] = assay: as above; design: key: ++, +, (+), (+)− and − represent decreasing numbers of syncitia formed; ++, +, (+), (+)− and − represent decreasing numbers of syncitia formed; ++, +, (+), (+)− and − represent decreasing numbers of syncitia formed; ++, +, (+), (+)− and − represent decreasing numbers of syncitia formed; ++, +, (+), (+)− and − represent decreasing numbers of syncitia formed; settings: Table 6
Method in brief: as §1

With N=C(N)NCCC[C@H](NC(=O)CNC(=O)[C@@H]1CCCN1C(=O)CN)C(=O)NCCCCC(=O)O [GPGR valeric acid, GPGR-NHCH2CH2CH2CH2COOH] (H-GPGR[Ava]-OH; N-terminus assumed) the “syncitia formed, Day 4” value (HIV-1 NDK; 0.005 μM) was “(+)”, the “syncitia formed, Day 5” value (HIV-1 NDK; 0.005 μM) was “+” and the “syncitia formed, Day 6” value (HIV-1 NDK; 0.005 μM) was “++”. For the same compound, the “syncitia formed, Day 7” value (HIV-1 NDK; 0.005 μM) was “++”, the “P 24” value (HIV-1 NDK; 0.005 μM) was 23810 pg/mL and the “syncitia formed, Day 4” value (HIV-1 NDK; 0.01 μM) was “(+)”. The “syncitia formed, Day 5” value (HIV-1 NDK; 0.01 μM) was “+”, the “syncitia formed, Day 6” value (HIV-1 NDK; 0.01 μM) was “++” and the “syncitia formed, Day 7” value (HIV-1 NDK; 0.01 μM) was “++”. The “P 24” value (HIV-1 NDK; 0.01 μM) was 23810 pg/mL, the “syncitia formed, Day 4” value (HIV-1 NDK; 0.05 μM) was “−” and the “syncitia formed, Day 5” value (HIV-1 NDK; 0.05 μM) was “(+)”. For the same compound, the “syncitia formed, Day 6” value (HIV-1 NDK; 0.05 μM) was “++”, the “syncitia formed, Day 7” value (HIV-1 NDK; 0.05 μM) was “++” and the “P 24” value (HIV-1 NDK; 0.05 μM) was 23810 pg/mL. For the same compound, the “syncitia formed, Day 4” value (HIV-1 NDK; 0.1 μM) was “−”, the “syncitia formed, Day 5” value (HIV-1 NDK; 0.1 μM) was “(+)” and the “syncitia formed, Day 6” value (HIV-1 NDK; 0.1 μM) was “++”. For the same compound, the “syncitia formed, Day 7” value (HIV-1 NDK; 0.1 μM) was “++”, the “P 24” value (HIV-1 NDK; 0.1 μM) was 17890 pg/mL and 23810 pg/mL and the “syncitia formed, Day 4” value (HIV-1 NDK; 0.5 μM) was “−”. The “syncitia formed, Day 5” value (HIV-1 NDK; 0.5 μM) was “−”, the “syncitia formed, Day 6” value (HIV-1 NDK; 0.5 μM) was “+” and the “syncitia formed, Day 7” value (HIV-1 NDK; 0.5 μM) was “++”. For the same compound, the “syncitia formed, Day 4” value (HIV-1 NDK; 1 μM) was “−”, the “syncitia formed, Day 5” value (HIV-1 NDK; 1 μM) was “−” and the “syncitia formed, Day 6” value (HIV-1 NDK; 1 μM) was “+”. The “syncitia formed, Day 7” value (HIV-1 NDK; 1 μM) was “++”, the “P 24” value (HIV-1 NDK; 1 μM) was 2840 pg/mL and 3810 pg/mL and the “syncitia formed, Day 4” value (HIV-1 NDK; 5 μM) was “−”. The “syncitia formed, Day 5” value (HIV-1 NDK; 5 μM) was “−”, the “syncitia formed, Day 6” value (HIV-1 NDK; 5 μM) was “(+)” and the “syncitia formed, Day 7” value (HIV-1 NDK; 5 μM) was “+”. The “P 24” value (HIV-1 NDK; 5 μM) was 3810 pg/mL, the IC50 (HIV-1 NDK; HIV 1 NDK, Table 10) was 300 nM and the IC100 (HIV-1 NDK; HIV 1 NDK, Table 10) was over 5 µM. The “syncitia formed, Day 4” value (HIV-1 NL 4-3 [1]; 0.01 μM, C8166 cells) was “−”, the “syncitia formed, Day 5” value (HIV-1 NL 4-3 [1]; 0.01 μM, C8166 cells) was “+” and the “syncitia formed, Day 6” value (HIV-1 NL 4-3 [1]; 0.01 μM, C8166 cells) was “++”. The “syncitia formed, Day 7” value (HIV-1 NL 4-3 [1]; 0.01 μM, Day 7, C8166 cells) was “++/T and ++”, the “syncitia formed, Day 4” value (HIV-1 NL 4-3 [1]; 0.05 μM, C8166 cells) was “−” and the “syncitia formed, Day 5” value (HIV-1 NL 4-3 [1]; 0.05 μM, C8166 cells) was “(+)”. The “syncitia formed, Day 6” value (HIV-1 NL 4-3 [1]; 0.05 μM, C8166 cells) was “+”, the “syncitia formed, Day 7” value (HIV-1 NL 4-3 [1]; 0.05 μM, Day 7, C8166 cells) was “++” and the “P 24” value (HIV-1 NL 4-3 [1]; 0.05 μM, P 24 after Day 7, C8166 cells) was 9860 pg/mL and 17800 pg/mL. For the same compound, the “syncitia formed, Day 4” value (HIV-1 NL 4-3 [1]; 0.1 μM, C8166 cells) was “−”, the “syncitia formed, Day 5” value (HIV-1 NL 4-3 [1]; 0.1 μM, C8166 cells) was “(+)” and the “syncitia formed, Day 6” value (HIV-1 NL 4-3 [1]; 0.1 μM, C8166 cells) was “+”. The “syncitia formed, Day 7” value (HIV-1 NL 4-3 [1]; 0.1 μM, Day 7, C8166 cells) was “+”, the “syncitia formed, Day 4” value (HIV-1 NL 4-3 [1]; 0.5 μM, C8166 cells) was “−” and the “syncitia formed, Day 5” value (HIV-1 NL 4-3 [1]; 0.5 μM, C8166 cells) was “−”. For the same compound, the “syncitia formed, Day 6” value (HIV-1 NL 4-3 [1]; 0.5 μM, C8166 cells) was “−”, the “syncitia formed, Day 7” value (HIV-1 NL 4-3 [1]; 0.5 μM, Day 7, C8166 cells) was “+” and the “P 24” value (HIV-1 NL 4-3 [1]; 0.5 μM, P 24 after Day 7, C8166 cells) was 2740 pg/mL and 2840 pg/mL. For the same compound, the “syncitia formed, Day 4” value (HIV-1 NL 4-3 [1]; 1 μM, C8166 cells) was “−”, the “syncitia formed, Day 5” value (HIV-1 NL 4-3 [1]; 1 μM, C8166 cells) was “−” and the “syncitia formed, Day 6” value (HIV-1 NL 4-3 [1]; 1 μM, C8166 cells) was “−”. For the same compound, the “syncitia formed, Day 7” value (HIV-1 NL 4-3 [1]; 1 μM, Day 7, C8166 cells) was “−”, the “P 24” value (HIV-1 NL 4-3 [1]; 1 μM, P 24 after Day 7, C8166 cells) was 53 pg/mL and 64 pg/mL and the “syncitia formed, Day 4” value (HIV-1 NL 4-3 [1]; 5 μM, C8166 cells) was “−”. The “syncitia formed, Day 5” value (HIV-1 NL 4-3 [1]; 5 μM, C8166 cells) was “−”, the “syncitia formed, Day 6” value (HIV-1 NL 4-3 [1]; 5 μM, C8166 cells) was “−” and the “syncitia formed, Day 7” value (HIV-1 NL 4-3 [1]; 5 μM, Day 7, C8166 cells) was “−”. The “P 24” value (HIV-1 NL 4-3 [1]; 5 μM, P 24 after Day 7, C8166 cells) was 2 pg/mL, the “P 24” value (HIV-1 NL 4-3 [1]; Day 7, 0.005 μM, Table 6) was 23810 pg/mL and the “P 24” value (HIV-1 NL 4-3 [1]; Day 7, 0.01 μM, Table 6) was 21800 pg/mL and 23810 pg/mL. For the same compound, the “P 24” value (HIV-1 NL 4-3 [1]; Day 7, 0.05 μM, Table 6) was 9840 pg/mL and 11830 pg/mL, the “P 24” value (HIV-1 NL 4-3 [1]; Day 7, 0.1 μM, Table 6) was 433 pg/mL and 507 pg/mL and the “P 24” value (HIV-1 NL 4-3 [1]; Day 7, 1 μM, Table 6) was 104 pg/mL and 179 pg/mL. The “P 24” value (HIV-1 NL 4-3 [1]; Day 7, 5 μM, Table 6) was 2.36 pg/mL and 2.4 pg/mL, the “Day 4 syncitia formed” value (HIV-1 NL 4-3 [2]; 0.005 μM) was “−” and the “Day 5 syncitia formed” value (HIV-1 NL 4-3 [2]; 0.005 μM) was “+”. For the same compound, the “Day 6 syncitia formed” value (HIV-1 NL 4-3 [2]; 0.005 μM) was “++”, the “Day 7 syncitia formed” value (HIV-1 NL 4-3 [2]; 0.005 μM) was “++” and the “Day 4 syncitia formed” value (HIV-1 NL 4-3 [2]; 0.01 μM) was “−”. For the same compound, the “Day 5 syncitia formed” value (HIV-1 NL 4-3 [2]; 0.01 μM) was “+”, the “Day 6 syncitia formed” value (HIV-1 NL 4-3 [2]; 0.01 μM) was “++” and the “Day 7 syncitia formed” value (HIV-1 NL 4-3 [2]; 0.01 μM) was “++”. For the same compound, the “Day 4 syncitia formed” value (HIV-1 NL 4-3 [2]; 0.05 μM) was “−”, the “Day 5 syncitia formed” value (HIV-1 NL 4-3 [2]; 0.05 μM) was “(+)” and the “Day 6 syncitia formed” value (HIV-1 NL 4-3 [2]; 0.05 μM) was “+”. The “Day 7 syncitia formed” value (HIV-1 NL 4-3 [2]; 0.05 μM) was “++”, the “Day 4 syncitia formed” value (HIV-1 NL 4-3 [2]; 0.1 μM) was “−” and the “Day 5 syncitia formed” value (HIV-1 NL 4-3 [2]; 0.1 μM) was “(+)”. For the same compound, the “Day 6 syncitia formed” value (HIV-1 NL 4-3 [2]; 0.1 μM) was “+”, the “Day 7 syncitia formed” value (HIV-1 NL 4-3 [2]; 0.1 μM) was “+” and the “Day 4 syncitia formed” value (HIV-1 NL 4-3 [2]; 0.5 μM) was “−”. The “Day 5 syncitia formed” value (HIV-1 NL 4-3 [2]; 0.5 μM) was “−”, the “Day 6 syncitia formed” value (HIV-1 NL 4-3 [2]; 0.5 μM) was “−” and the “Day 7 syncitia formed” value (HIV-1 NL 4-3 [2]; 0.5 μM) was “+”. For the same compound, the “Day 4 syncitia formed” value (HIV-1 NL 4-3 [2]; 1 μM) was “−”, the “Day 5 syncitia formed” value (HIV-1 NL 4-3 [2]; 1 μM) was “−” and the “Day 6 syncitia formed” value (HIV-1 NL 4-3 [2]; 1 μM) was “−”. For the same compound, the “Day 7 syncitia formed” value (HIV-1 NL 4-3 [2]; 1 μM) was “+”, the “Day 4 syncitia formed” value (HIV-1 NL 4-3 [2]; 5 μM) was “−” and the “Day 5 syncitia formed” value (HIV-1 NL 4-3 [2]; 5 μM) was “−”. For the same compound, the “Day 6 syncitia formed” value (HIV-1 NL 4-3 [2]; 5 μM) was “−” and the “Day 7 syncitia formed” value (HIV-1 NL 4-3 [2]; 5 μM) was “−”.
